Results from PubChem BioAssay (NCI).
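A five-concentration, 48-hour dose response in 96-well plates underlies each endpoint, interpolated linearly between surrounding concentrations. GI50: concentration for 50% inhibition of growth. Definition used: TGI = concentration required for complete inhibition of growth.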

Key:
Assay in all cases: inhibition of tumour cell growth, NCI panel, 48 h
[1] = tested on: SK-OV-3 ovarian
[2] = tested on: OVCAR-5 ovarian
[3] = tested on: TK-10 renal
[4] = tested on: SK-MEL-2 melanoma
[5] = tested on: HCT-15 colon
[6] = tested on: EKVX NSCLC
[7] = tested on: SK-MEL-28 melanoma
[8] = tested on: NCI-H460 lung
[9] = tested on: OVCAR-4 ovarian
[10] = tested on: OVCAR-3 ovarian

| Structure (SMILES) | TGI [1] [µM] | TGI [2] [µM] | TGI [3] [µM] | TGI [4] [µM] | TGI [5] [µM] | TGI [6] [µM] | TGI [7] [µM] | TGI [8] [µM] | TGI [9] [µM] | TGI [10] [µM] | GI50 [1] [µM] | GI50 [2] [µM] | GI50 [3] [µM] | GI50 [4] [µM] | GI50 [5] [µM] | GI50 [6] [µM] | GI50 [7] [µM] | GI50 [8] [µM] | GI50 [9] [µM] | GI50 [10] [µM] |
| --- | --- | --- | --- | --- | --- | --- | --- | --- | --- | --- | --- | --- | --- | --- | --- | --- | --- | --- | --- | --- |
| CNC(=O)NCCCCC(NC(=O)OCc1ccccc1)C(=O)OCc1ccccc1 (stereo not given) | > 100 | > 100 | 52.6 | 61.1 | > 100 | > 100 | 60.6 | > 100 | 46.5 | 32.1 | – | – | – | – | – | – | – | – | – | – |
| C=C(C)C1Cc2cc(C(C)=O)ccc2O1 (stereo not given) | > 100 | > 100 | > 100 | > 100 | > 100 | > 100 | > 100 | > 100 | > 100 | > 100 | – | – | – | – | – | – | – | – | – | – |
| [N-]=[N+]=Nc1nnc(CCCCc2nnc(N=[N+]=[N-])o2)o1 | > 100 | > 100 | > 100 | > 100 | > 100 | > 100 | > 100 | > 100 | > 100 | > 100 | – | – | – | – | – | – | – | – | – | – |
| O=C(CC(=O)c1cccc2ccccc12)C(=O)Nc1nccs1 | > 100 | > 100 | > 100 | > 100 | > 100 | > 100 | > 100 | > 100 | > 100 | > 100 | – | – | – | – | – | – | – | – | – | – |
| C=CCC(O)c1cc(OC)ccc1OC (stereo not given) | > 100 | > 100 | > 100 | > 100 | > 100 | > 100 | > 100 | > 100 | > 100 | > 100 | – | – | – | – | – | – | – | – | – | – |
| O=C1c2ccccc2-c2c1c1ccc3ccccc3c1n2-c1ccccc1 | 54.1 | > 100 | 44.7 | > 100 | > 100 | > 100 | > 100 | > 100 | > 100 | 57.6 | 26.2 | 29.2 | 20.6 | > 100 | > 100 | 40 | > 100 | 31.7 | > 100 | 24.6 |
| CCOC(=O)/C(=C/c1ccccc1)N(CC)CC | > 100 | > 100 | > 100 | > 100 | > 100 | > 100 | > 100 | > 100 | > 100 | > 100 | – | – | – | – | – | – | – | – | – | – |
| C=CC(=O)N1CCC(CNc2ncnc(N)c2-c2ccc(Oc3ccccc3)cc2)CC1 | 70 | > 100 | > 100 | 42 | > 100 | > 100 | > 100 | > 100 | > 100 | 85.1 | 18 | 46.7 | 21.4 | 19.3 | 26.6 | 24.1 | 34.4 | 34.8 | 24.1 | 27.6 |
| CCOc1cc2cnc3c4cc(OC)c(OC)cc4ccc3c2cc1OC | > 100 | > 100 | > 100 | > 100 | > 100 | > 100 | > 100 | > 100 | > 100 | > 100 | – | – | – | – | – | – | – | – | – | – |
| CC(C)=CC1(C)/C(=N\O)C(C)(CC(C)C)C(=O)N1O (stereo not given) | > 100 | > 100 | > 100 | > 100 | > 100 | > 100 | > 100 | > 100 | > 100 | > 100 | – | – | – | – | – | – | – | – | – | – |
| NC(CCSCCF)C(=O)O (stereo not given) | > 100 | > 100 | > 100 | > 100 | > 100 | > 100 | > 100 | > 100 | > 100 | > 100 | – | – | – | – | – | – | – | – | – | – |
| CC(=O)OCc1ncccc1C(OC(C)=O)OC(C)=O | > 100 | > 100 | > 100 | > 100 | > 100 | > 100 | > 100 | > 100 | > 100 | > 100 | – | – | – | – | – | – | – | – | – | – |
| COC(=O)[C@]12CC[C@@H](C)[C@H](C)[C@@H]1C1=CC[C@@H]3[C@@]4(C)C(C=O)=C[C@@](C)(COC(=O)c5ccco5)C4=CC[C@@]3(C)[C@]1(C)CC2 | 75.1 | 6.99 | 12.5 | 0.743 | 4.09 | 9.17 | 3.01 | 7.61 | 22.4 | 4.76 | 8.41 | 2.32 | 2.42 | 0.273 | 1.91 | 2.74 | 0.053 | 2.66 | 3.54 | 2.17 |
| CCCCc1n(Cc2ccc3ccccc3n2)cc[n+]1Cc1ccc2ccccc2c1 | 4.33 | 8.48 | 3.69 | 2.64 | 18.1 | 11.8 | 2.59 | 2.95 | 1.63 | 2.03 | 1.47 | 1.54 | 1.49 | 0.977 | 5.07 | 1.4 | 0.798 | 0.917 | 0.262 | 0.541 |
| COc1ccccc1N1CCN(CC(O)Cn2c(=O)c3c(OC)nc(C)cc3c(=O)n2-c2ccccc2)CC1 (stereo not given) | > 100 | > 100 | 81.7 | > 100 | > 100 | > 100 | > 100 | > 100 | > 100 | > 100 | 23.5 | > 100 | 19.4 | 43.9 | > 100 | 66.1 | > 100 | > 100 | > 100 | > 100 |
| O=C(O)c1ccccc1C(=O)Nc1cc2c(cc1Br)-c1ccccc1C2=O | > 100 | > 100 | > 100 | > 100 | > 100 | > 100 | > 100 | > 100 | > 100 | > 100 | – | – | – | – | – | – | – | – | – | – |
| COc1ccc2c3c1OC1C4(CCC5C(C2)N(CC2CC2)CCC351)OCCO4 (stereo not given) | > 100 | > 100 | > 100 | > 100 | > 100 | > 100 | > 100 | > 100 | > 100 | > 100 | – | – | – | – | – | – | – | – | – | – |
